Source: patent publication US20240301141A1, “SILICONE POLYMER COMPOUND AND TRANSDERMAL DELIVERY SYSTEM COMPRISING SAME” (UNIVERSITY-INDUSTRY COOPERATION GROUP OF KYUNG HEE …, priority 2021, published 2024)

Columns and labels:
mice = experiment: Biocompatibility / immunotoxicity in mice (application behind the ears); settings: mouse, in vivo
Protocol: Specifically, 25 μL each of phosphate-buffered saline (PBS) as a negative control, eugenol (Eug) inducing immunotoxicity as a positive control, and a C2 compound in the PDDS series were applied behind the ears of mice for 3 days, and after 6 days, the change in body weight, the feed intake and water intake, the weight of auricular lymph nodes, the number of lymph node cells, the stimulation index, and the concentrations of histamine and immunoglobulin E in the blood were measured.

[1] = Water contact angle on coated slide glass; assay type: physicochemical; settings: distilled water on coated slide glass
Protocol: Specifically, a monomer and PDDS series compounds were applied onto a slide glass from Marienfeld using a 100 μL pipette, respectively, and then the monomer and the PDDS series were uniformly coated on the slide glass while the slide glass was tilted left and right. The monomer and the PDDS series were coated for about 1 hour in a fume hood, and then 100 μL each of the monomer and PDDS series were dropped again, and coated without an empty portion of the slide glass by repeating the process two more times. Thereafter, distilled water was dropped on the surface of the coated glass slide using a contact angle meter from Kruss and the contact angles were analyzed.

skin of mouse = experiment: Skin penetration efficiency, fluorescence of oil red O in skin sections; assay type: in vivo
Protocol: Specifically, 100 μL each of oil red O-loaded C2 compound (C2; […]) and oil red O (OR; 100 μL, stock solution: 24 μM in PBS (1% ethanol)) were applied to the skin, and after 24 and 48 hours, the skin tissue was sectioned, and then the fluorescence of oil red O was tracked (excitation: 559 nm, detection: 636±20 nm) using a fluorescence microscope, and quantified and plotted using the Image-J program.
Here, (b, c) of FIG. 25 and (e, f) of FIG. 25 show the fluorescence intensity plot of Oil red O or the C2 compound (C2) loaded with Oil red O along the yellow dotted line in the images of (a) of FIG. 25 and (d) of FIG. 25, respectively.

red blood cells = experiment: Hemolysis analysis of mouse red blood cells; assay type: cell-based; settings: 37° C., 1 hour, absorption 492 nm
Protocol: In addition, for hemolysis analysis, a blood sample was obtained from the heart of the mouse anesthetized with isoflurane, and then centrifuged at 4° C. (3000 rpm, 3 min) with cold 1×PBS (1 mL, 3 times) to collect red blood cells. The purified red blood cells were treated with 100 μL of 8% (v/v) each of PBS and the C2 compound and further incubated at 37° C. for 1 hour. The mixture was then collected using centrifugation at 4° C.

[2] = system: B16F10 (mouse murine melanoma cell line) cells
Protocol: Specifically, B16F10 (mouse murine melanoma cell line) cells were transplanted into the left or right thigh (subcutaneously) of the mouse (6-week-old female Balb/c nude) on day 0 to induce melanoma tumor, and then after 10 days later (tumor size=about 200 mm^3), melanoma model mice were divided into 3 groups (5 mice per group), and each group was administered with 100 μL of PBS, SN-38 (3 mM), or C2+SN-38 (C2 compound encapsulated with SN-38 anticancer agent) by topical application on days 10, 12, 13, and 14 ((a) of FIG. 27). In order to determine toxicity and therapeutic effects in melanoma model mice for 16 days, changes in body weight and tumor volume were measured every 2 to 3 days. At the end of the experiment (day 15), the body of each mouse was photographed with a digital camera to determine the shape and size of the tumor, and at the end of the experiment (day 16), the tumor was extracted from the mouse. The extracted tumor tissue (harvested tumor) was photographed with a digital camera, and the size and volume thereof were measured. In addition, for hemolysis analysis, red blood cells purified from the blood sample obtained from the mouse heart were treated with 100 μL of PBS (negative control), SN-38 (3 mM), C2+SN-38, and Triton-X (0.1% (v/v); positive control) at 8% (v/v), respectively, and further incubated at 37° C. for 1 hour, and then the mixture was centrifuged at 4° C. (3000 rpm, 3 min) and the UV/vis absorption peak (492 nm) of the final obtained supernatant was measured at 25° C.

## C=CCc1ccc(O)c(OC)c1 [eugenol]
mice
  feed intake and water intake: took less feed and water
  number of lymph node cells (BrdU assay): statistically significant increase
  stimulation index: statistically significant increase

## C[Si]1(C)CC[Si](C)(C)O1 [monomer, 2,2,5,5-tetramethyl-2,5-disila-1-oxacyclopentane]
[1]
  Contact angle: 69.0±1.2 °

## Cc1ccc(C)c(N=Nc2cc(C)c(N=Nc3c(O)ccc4ccccc34)cc2C)c1 [oil red O]
Skin of mouse; 24 hours after application
  absorption of oil red O in skin tissue (fluorescence): hardly absorbed into the subcutaneous tissue
Skin of mouse; 48 hours after application
  absorption of oil red O in skin tissue (fluorescence): hardly absorbed into the subcutaneous tissue

## CCc1c2c(nc3ccc(O)cc13)-c1cc3c(c(=O)n1C2)COC(=O)[C@]3(O)CC [SN-38, 7-ethyl-10-hydroxycamptothecin]
Red blood cells
  hemolysis rate in red blood cells: severe hemolysis
[2]; melanoma xenograft mouse, topical on days 10, 12, 13, 14
  change in body weight: no significant change
[2]; tumor extracted day 16
  average tumor volume of extracted tumor: 1689±498.6 mm^3
  tumor growth / tumor size of extracted tumor tissue: only slightly reduced tumor growth
